Laboratory results from US9464326B2, “Total and phosphorylated IL-1 receptor-associated kinase-1 and IL-1 receptor-associated kinase-4 as a biomarker for cancer progression and chemotherapy resistance” (University of Maryland, Baltimore, priority 2012, dated 2016).

Test system: CCRF-CEM cells
Assay: Cell number and apoptosis assays
Type: cell-based, human
Conditions: IRAK-1,-4 inhibitor 0-20 μM plus titrated drug, apoptosis by 7AAD at 48 hours, FIG. 23
Protocol: TLR ligands were diluted 2-fold. Cell lines (25-40×10^3/well) were cultured for 54 hours, whereas fresh patient-derived T-ALL cells (200×10^3/well) were cultured for 30 hours prior to adding [^3H]-thymidine for 18 hours. After this time point, cells were harvested with a Packard Filter-Mate-96 cell harvester (Perkin Elmer, Waltham, Mass., USA) and counted on Packard Top Count-NXT (Perkin Elmer, Waltham, Mass., USA). Results were expressed as average counts per minute (cpm). In some experiments CCRF-CEM cells were pre-treated with TLR1-TLR2 ligand (Pam3CysK4; 2.5 ug/ml) for 48 hrs, washed, and then cultured in the presence of varying concentrations of FBS. Forty-eight hours later, proliferation (±SD) was determined by ^3H-thymidine incorporation. Alternatively, apoptosis was measured by flow cytometry after staining cells with Annexin-V (BD Pharmingen, San Diego, Calif., USA) and propidium iodide (Sigma). Cell number was counted under microscopy by staining cells with trypan blue.
CCRF-CEM cells were treated with IRAK-1,-4 inhibitor for 24, 48, 72, and 96 hours.
The T-ALL cell line CCRF-CEM was cultured in the presence of 0, 1.2, 5, 10, and 20 μM IRAK-1,-4 inhibitor. (FIG. 23). To each concentration of IRAK-1,-4 inhibitor titrating doses of ABT-737 (1000→15 nM) vincristine, VS (10→0.1 nM), and paclitaxol, PAC (100→1.5 nM). […] Apoptosis was measure 48 hours later by staining cells with 7AAD and analyzed by flow cytometry.

CC[C@]1(O)C[C@H]2CN(CCc3c([nH]c4ccccc34)[C@@](C(=O)OC)(c3cc4c(cc3OC)N(C=O)[C@H]3[C@@](O)(C(=O)OC)[C@H](OC(C)=O)[C@]5(CC)C=CCN6CC[C@]43[C@@H]65)C2)C1 [vincristine]
synergy with IRAK-1,-4 inhibitor: synergy
